The assay has as its target T1, KCNT1 (KNa1.1, Slack) (Homo sapiens, UniProt Q5JUK3).
T1 construct: expressed in transfected cells; host or cells: HEK-TREX (tetracycline inducible cell line)
T1 sequence (Q5JUK3 1-1230): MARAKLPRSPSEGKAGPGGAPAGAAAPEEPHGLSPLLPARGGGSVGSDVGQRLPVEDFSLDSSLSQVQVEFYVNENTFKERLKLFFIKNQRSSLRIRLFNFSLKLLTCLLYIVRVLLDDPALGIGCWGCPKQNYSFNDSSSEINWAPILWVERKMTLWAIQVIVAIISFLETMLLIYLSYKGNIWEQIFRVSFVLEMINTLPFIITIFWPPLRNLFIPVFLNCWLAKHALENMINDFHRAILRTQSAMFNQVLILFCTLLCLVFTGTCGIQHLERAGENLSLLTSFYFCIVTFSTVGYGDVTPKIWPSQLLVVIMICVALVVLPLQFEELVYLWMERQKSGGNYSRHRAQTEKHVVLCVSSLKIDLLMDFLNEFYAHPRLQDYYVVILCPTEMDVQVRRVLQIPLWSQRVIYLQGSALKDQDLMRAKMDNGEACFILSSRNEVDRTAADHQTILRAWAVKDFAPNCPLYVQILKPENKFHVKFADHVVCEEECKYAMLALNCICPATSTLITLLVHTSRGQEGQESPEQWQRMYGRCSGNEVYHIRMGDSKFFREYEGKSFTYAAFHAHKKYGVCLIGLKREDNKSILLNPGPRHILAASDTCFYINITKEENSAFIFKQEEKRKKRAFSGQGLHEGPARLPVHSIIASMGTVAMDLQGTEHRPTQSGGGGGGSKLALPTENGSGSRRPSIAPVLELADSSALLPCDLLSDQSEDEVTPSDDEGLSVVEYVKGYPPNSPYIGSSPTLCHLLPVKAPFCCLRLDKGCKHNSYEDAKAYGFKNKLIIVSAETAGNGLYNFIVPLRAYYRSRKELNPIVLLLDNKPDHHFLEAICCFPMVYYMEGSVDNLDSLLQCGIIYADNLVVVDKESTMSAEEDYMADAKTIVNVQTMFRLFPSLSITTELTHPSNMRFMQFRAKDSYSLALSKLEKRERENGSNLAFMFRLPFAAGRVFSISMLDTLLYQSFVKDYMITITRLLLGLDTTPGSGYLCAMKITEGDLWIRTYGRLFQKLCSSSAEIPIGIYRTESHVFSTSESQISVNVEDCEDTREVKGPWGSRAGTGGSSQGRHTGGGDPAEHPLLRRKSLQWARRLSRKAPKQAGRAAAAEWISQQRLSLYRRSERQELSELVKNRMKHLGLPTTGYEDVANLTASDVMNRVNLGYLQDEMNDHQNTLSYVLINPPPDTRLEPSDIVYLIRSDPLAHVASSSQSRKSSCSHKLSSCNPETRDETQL
In words: KCNT1 patch clamp assay (SyncroPatch 384PE, tetracycline inducible HEK-TREX cell line). Format: cell-based. To be noted: WT KCNT1, HEK-TREX cells, perforated patch, step from -80 mV to 0 mV, room temperature; read-out: WT (KCNT1 inhibition IC50). On the procedure:
Inhibition of KCNT1 (KNa1.1, Slack) was evaluated using a tetracycline inducible cell line (HEK-TREX). Currents were recorded using the SyncroPatch 384PE automated, patch clamp system. Pulse generation and data collection were performed with PatchController384 V1.3.0 and DataController384 V1.2.1 (Nanion Technologies). The access resistance and apparent membrane capacitance were estimated using built-in protocols. Current was recorded in perforated patch mode (10 μM escin) from a population of cells. The cells were lifted, triturated, and resuspended at 800,000 cells/ml. The cells were allowed to recover in the cell hotel prior to experimentation. Currents were recorded at room temperature. The external solution contained the following (in mM): NaCl 105, NMDG 40, KCl 4, MgCl2 1, CaCl2 5, and HEPES 10 (pH=7.4, Osmolarity ˜300 mOsm). The extracellular solution was used as the wash, reference, and compound delivery solution. The internal solution contained the following (in mM): NaCl 70, KF 70, KCl 10, EGTA 5, HEPES 5, and Escin 0.01 (pH=7.2, Osmolarity ˜295 mOsm). Escin is made at a 5 mM stock in water, aliquoted, and stored at −20° C. The compound plate was created at 2× concentrated in the extracellular solution. The compound was diluted to 1:2 when added to the recording well. The amount of DMSO in the extracellular solution was held constant at the level used for the highest tested concentration. A holding potential of −80 mV with a 100 ms step to 0 mV was used. Mean current was measured during the step to 0 mV. […] The average mean current from 3 sweeps was calculated and the percent inhibition of each compound was calculated. The percent inhibition as a function of the compound concentration was fit with a Hill equation to derive IC50, slope, minimum parameters, and maximum parameters. If KCNT1 inhibition was less than 50% at the highest tested concentration or if an IC50 could not be calculated, then a percent inhibition was reported in place of the IC50.
In this table, “A” indicates IC50 of less than or equal to 1 μM; “B” indicates inhibition of between 1 μM to 20 μM; and “C” indicates inhibition of greater than or equal to 20 μM.
With `CC(NC(=O)c1cc(C(F)(F)F)nn1C)c1cc(C(F)(F)F)nn1C` (single isomer, unassigned) [Compound 1015], the IC50 is 1 to 20 µM.

Regarding `CC(NC(=O)c1cc(C(F)(F)F)nn1C)c1cc(-c2ccccc2)nn1C` (single isomer, unassigned) [Compound 1010], the IC50 fell in the range of 1 to 20 µM.

Regarding `CC(NC(=O)c1cc(C(F)(F)F)nn1C)c1cc(NC2CCCC2)nn1C` (stereo not shown) [Compound 1026], the IC50 is at least 20 µM.

On to `CC(NC(=O)c1cc(C(F)(F)F)nn1C)c1cc(-c2ccc(C(F)(F)F)nc2)nn1C` (stereo not shown) [Compound 1018], for which the IC50 lay within 1 to 20 µM.

`CC(NC(=O)c1cc(C(F)(F)F)nn1C)c1cc(-c2ccc(CO)nc2)nn1C` (stereo not shown) [Compound 1009]: the IC50 is at least 20 µM.

For `CC(C)Oc1cc(C(C)NC(=O)c2cc(C(F)(F)F)nn2C)n(C)n1` (stereo not shown) [Compound 1031], the IC50 is at least 20 µM.

On to `CCn1nc(-c2ccnc(C(F)(F)F)c2)cc1C(C)NC(=O)c1cc(C(F)(F)F)nn1C` (single isomer, unassigned) [Compound 1004], for which the IC50 is at most 1 µM.

Take `CC(NC(=O)c1cc(C(F)(F)F)nn1C)c1cc(N(C)C2CCCC2)nn1C` (stereo not shown) [Compound 1027]: the half-maximal inhibitory concentration (IC50) lay within 1 to 20 µM.

Consider `Cn1nc(-c2ccnc(C(F)(F)F)c2)cc1CNC(=O)c1ccccc1` [Compound 1040], for which the IC50 is at most 1 µM.

On to `Cn1nc(C(F)F)cc1C(=O)NC1(c2cc(-c3ccnc(C(F)(F)F)c3)nn2C)CC1` [Compound 1034], for which the IC50 is at most 1 µM.

On to `CC(NC(=O)c1cc(C(F)(F)F)nn1C)c1cc(-c2ccccc2)nn1C` (single isomer, unassigned) [Compound 1011], for which the IC50 lay within 1 to 20 µM.

In the case of `CC(C)c1cc(C(=O)NCc2cc(-c3ccnc(C(F)(F)F)c3)nn2C)n(C)n1` [Compound 1039], the IC50 was at most 1 µM.

Take `CC(NC(=O)c1cc(C(F)(F)F)nn1C)c1cc(-c2ccnc(C(F)(F)F)c2)nn1C` (stereo not shown) [Compound 1020]: the IC50 was at most 1 µM.

Take `Cn1nc(C(F)(F)F)cc1C(=O)NC1(c2cc(-c3ccnc(C(F)(F)F)c3)nn2C)CC1` [Compound 1035]: the IC50 is at most 1 µM.

As to `CC(NC(=O)c1cc(C(F)(F)F)nn1C)c1cc(-c2ccc(C#N)nc2)nn1C` (stereo not shown) [Compound 1016], the IC50 is at least 20 µM.

Regarding `CC(NC(=O)c1cc(C(F)(F)F)nn1C)c1cc(Nc2ccccc2)nn1C` (stereo not shown) [Compound 1024], the IC50 lay within 1 to 20 µM.

Consider `Cn1nc(-c2ccnc(C(F)(F)F)c2)cc1CNC(=O)c1cc(C(F)F)nn1C` [Compound 1033], for which the IC50 was at most 1 µM.

Consider `CCOc1cc(-c2cc(CNC(=O)c3cc(C(F)(F)F)nn3C)n(C)n2)ccn1` [Compound 1037], for which the IC50 is at most 1 µM.

On to `CC(NC(=O)c1cc(C(F)(F)F)nn1C)c1cc(Cc2ccccc2)nn1C` (stereo not shown) [Compound 1028], for which the IC50 fell in the range of 1 to 20 µM.

As to `CC(NC(=O)c1cc(C(F)(F)F)nn1C)c1cc(N2CCCCC2)nn1C` (stereo not shown) [Compound 1023], the IC50 lay within 1 to 20 µM.

Turning to `Cc1c(-c2ccnc(C(F)(F)F)c2)nn(C)c1CNC(=O)c1cc(C(F)(F)F)nn1C` [Compound 1030], the IC50 was at most 1 µM.

Regarding `CC(NC(=O)c1cc(C(F)(F)F)nn1C)c1cc(N(C)c2ccccc2)nn1C` (stereo not shown) [Compound 1025], the IC50 was 1 to 20 µM.

As to `CC(NC(=O)c1cc(C(F)(F)F)nn1C)c1cc(Oc2ccccc2)nn1C` (stereo not shown) [Compound 1032], the half-inhibitory concentration (IC50) lay in the range of 1 to 20 µM.

On to `CC(NC(=O)c1cc(C(F)(F)F)nn1C)c1cc(C(F)(F)F)nn1C` (single isomer, unassigned) [Compound 1014], for which the IC50 is 1 to 20 µM.

Turning to `CC(NC(=O)c1cc(C(F)(F)F)nn1C)c1cc(-c2ccncc2)nn1C` (single isomer, unassigned) [Compound 1003], the IC50 was at least 20 µM.

On to `Cc1cccc(-c2cc(C(C)NC(=O)c3cc(C(F)(F)F)nn3C)n(C)n2)n1` (stereo not shown) [Compound 1017], for which the IC50 fell in the range of 1 to 20 µM.

On to `CC(NC(=O)c1cc(C(F)(F)F)nn1C)c1cc(-c2ccnc(C(F)(F)F)c2)nn1C` (single isomer, unassigned) [Compound 1001], for which the IC50 was at most 1 µM.

On to `Cc1cc(-c2cc(C(C)NC(=O)c3cc(C(F)(F)F)nn3C)n(C)n2)ccn1` (single isomer, unassigned) [Compound 1005], for which the IC50 lay in the range of 1 to 20 µM.

Turning to `COc1ccc(-c2cc(C(C)NC(=O)c3cc(C(F)(F)F)nn3C)n(C)n2)cn1` (stereo not shown) [Compound 1013], the IC50 was at most 1 µM.

On to `COc1cc(-c2cc(CNC(=O)c3cc(C(F)(F)F)nn3C)n(C)n2)ccn1` [Compound 1036], for which the IC50 was at most 1 µM.

For the molecule `CC(NC(=O)c1cc(C(F)(F)F)nn1C)c1cc(-c2ccc(C#N)cc2)nn1C` (stereo not shown) [Compound 1021], the IC50 fell in the range of 1 to 20 µM.

Consider `Cc1ncc(-c2cc(C(C)NC(=O)c3cc(C(F)(F)F)nn3C)n(C)n2)cn1` (stereo not shown) [Compound 1012], for which the IC50 was at least 20 µM.

With `CCn1nc(-c2ccnc(C(F)(F)F)c2)cc1CNC(=O)c1cc(C(F)(F)F)nn1C` [Compound 1029], the IC50 was at most 1 µM.

As for `CCn1nc(-c2ccnc(C(F)(F)F)c2)cc1C(C)NC(=O)c1cc(C(F)(F)F)nn1C` (single isomer, unassigned) [Compound 1007], the IC50 is at most 1 µM.

On to `Cc1cc(-c2cc(C(C)NC(=O)c3cc(C(F)(F)F)nn3C)n(C)n2)ccn1` (single isomer, unassigned) [Compound 1006], for which the IC50 was in the range of 1 to 20 µM.

Regarding `Cc1cc(-c2cc(CNC(=O)c3cc(C(F)(F)F)nn3C)n(C)n2)c(F)cn1` [Compound 1041], the IC50 is at most 1 µM.

On to `Cn1nc(-c2ccnc(C(F)(F)F)c2)cc1CNC(=O)c1cc(C(F)(F)F)nn1C` [Compound 1019], for which the IC50 was at most 1 µM.

As to `CC(NC(=O)c1cc(C(F)(F)F)nn1C)c1cc(-c2ccc(C(N)=O)cc2)nn1C` (stereo not shown) [Compound 1022], the IC50 was at least 20 µM.

Regarding `Cn1nc(-c2ccnc(C3CC3)c2)cc1CNC(=O)c1cc(C(F)(F)F)nn1C` [Compound 1038], the IC50 is at most 1 µM.

Take `CC(NC(=O)c1cc(C(F)(F)F)nn1C)c1cc(-c2ccncc2)nn1C` (single isomer, unassigned) [Compound 1008]: the IC50 was in the range of 1 to 20 µM.

(Values after patent US20250346576A1, “KCNT1 INHIBITORS COMPRISING A PYRAZOLE CORE AND METHODS OF USE” (PRAXIS PRECISION MEDICINES, INC., priority 2022, published 2025).)
